US9200051B2, “Peptide compound” (TAKEDA PHARMACEUTICAL COMPANY LIMITED, priority 2013, dated 2015)
pEC50: −log10 of the molar value. Read-outs that look alike come from different tables or passages of the source. Square brackets hold non-standard residues; d marks the D form. Peptide text beside a SMILES is read from it. * marks the point of attachment. Tyr(Nα-amidino) = N=C(N)N[C@@H](Cc1ccc(O)cc1)C(=O)*; Cyclopropanecarbonyl = O=C(C1CC1)*; αMeF = C[C@](N)(Cc1ccccc1)C(=O)O; Isonicotinoyl = O=C(c1ccncc1)*; Aib = CC(C)(N)C(=O)O; Bz = O=C(c1ccccc1)*

Experiments:
human GIPR = target: T1, human GIPR (Homo sapiens, UniProt P48546); experiment: Agonist activity against human GIPR, CRE-luciferase reporter assay (rise in intracellular cAMP) in hGIPR/CRE-LUC/CHO-K1 cells; format: cell-based
T1 construct: expressed in transfected cells; host or cells: CHO-K1 (CRE-LUC/CHO-K1), plasmid hGIPR/pMSRα-neo
T1 sequence (P48546 22-466): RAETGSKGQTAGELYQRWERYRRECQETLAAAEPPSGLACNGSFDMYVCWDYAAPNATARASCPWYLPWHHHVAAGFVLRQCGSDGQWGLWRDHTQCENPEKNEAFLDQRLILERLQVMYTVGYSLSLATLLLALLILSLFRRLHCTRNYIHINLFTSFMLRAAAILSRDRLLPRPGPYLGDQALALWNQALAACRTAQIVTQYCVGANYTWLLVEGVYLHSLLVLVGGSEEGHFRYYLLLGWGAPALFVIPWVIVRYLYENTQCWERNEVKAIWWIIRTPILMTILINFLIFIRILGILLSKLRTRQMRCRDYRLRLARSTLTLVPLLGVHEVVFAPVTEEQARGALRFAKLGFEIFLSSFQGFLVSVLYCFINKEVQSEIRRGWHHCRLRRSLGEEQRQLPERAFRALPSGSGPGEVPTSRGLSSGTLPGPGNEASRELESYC

[1] = Solubility test in Britton-Robinson buffer, observed visually; format: physicochemical; settings: visual
Method: The test compound of approximately 2 mg was measured precisely. Solvents (10 μL, 20 μL or 40 μL) with different pH (Britton-Robinson buffer (pH 3, 5, 7, 9)) were added to each test compound at 25° C., and the solubility was observed visually.

human glucagon R = target: T2, human glucagon R (Homo sapiens, UniProt P47871); experiment: Agonist activity against human glucagon R, CRE-luciferase reporter assay in hGlucagonR/CRE-LUC/CHO-K1 cells; format: cell-based
T2 construct: expressed in transfected cells; host or cells: CHO-K1 (CRE-LUC/CHO-K1), plasmid hGlucagonR/pMSRα-neo
T2 sequence (P47871 26-477): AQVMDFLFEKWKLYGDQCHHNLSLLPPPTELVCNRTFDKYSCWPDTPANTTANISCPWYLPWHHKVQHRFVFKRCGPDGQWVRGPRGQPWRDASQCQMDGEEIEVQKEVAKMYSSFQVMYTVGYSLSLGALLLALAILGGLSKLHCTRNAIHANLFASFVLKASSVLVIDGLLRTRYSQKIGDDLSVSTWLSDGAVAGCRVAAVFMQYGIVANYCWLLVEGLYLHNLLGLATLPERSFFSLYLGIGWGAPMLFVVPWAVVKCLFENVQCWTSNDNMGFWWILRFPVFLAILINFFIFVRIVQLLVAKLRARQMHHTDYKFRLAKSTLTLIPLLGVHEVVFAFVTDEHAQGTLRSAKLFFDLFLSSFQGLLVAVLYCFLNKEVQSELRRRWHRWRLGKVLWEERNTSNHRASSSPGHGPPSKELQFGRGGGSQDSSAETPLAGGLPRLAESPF

human GLP-1R = target: T3, human GLP-1R (Homo sapiens, UniProt P43220); experiment: Agonist activity against human GLP-1R, CRE-luciferase reporter assay in hGLP-1R/CRE-luc/CHO-K1 cells; format: cell-based
T3 construct: expressed in transfected cells; host or cells: CHO-K1, plasmids hGLP-1/pIRESneo3 and Cre-luc(Zeo)
T3 sequence (P43220 24-463): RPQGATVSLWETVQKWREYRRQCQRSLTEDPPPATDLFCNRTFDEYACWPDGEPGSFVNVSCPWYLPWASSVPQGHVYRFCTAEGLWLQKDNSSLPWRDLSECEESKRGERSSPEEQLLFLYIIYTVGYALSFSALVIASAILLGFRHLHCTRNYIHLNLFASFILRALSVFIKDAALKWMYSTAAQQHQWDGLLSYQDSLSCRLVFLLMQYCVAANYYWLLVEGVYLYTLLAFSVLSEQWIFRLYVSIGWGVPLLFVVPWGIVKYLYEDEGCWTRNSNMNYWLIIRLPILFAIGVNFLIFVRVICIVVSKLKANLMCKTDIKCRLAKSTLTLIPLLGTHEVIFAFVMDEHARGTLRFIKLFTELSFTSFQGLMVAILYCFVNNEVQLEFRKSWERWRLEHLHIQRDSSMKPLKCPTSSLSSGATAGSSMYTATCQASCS

[2] = hGIPR/CRE-LUC/CHO-K1 cells, 4 hours incubation, 10 nM GIP = 100%, read-out: Agonist activity (EC50) hGIPR
[3] = hGlucagonR/CRE-LUC/CHO-K1 cells, 4 hours incubation, 10 nM glucagon = 100%, read-out: Agonist activity (EC50) hGCGR
[4] = hGLP-1R/CRE-luc/CHO-K1 cells, 4 hours incubation, 10 nM GLP-1 = 100%, read-out: Agonist activity (EC50) hGLP-1R

## CC[C@H](C)[C@H](NC(=O)C(C)(C)NC(=O)[C@H](Cc1ccc(O)cc1)NC(=O)[C@H](CC(=O)O)NC(=O)[C@H](CO)NC(=O)[C@@H](NC(=O)[C@](C)(Cc1ccccc1)NC(=O)[C@@H](NC(=O)CNC(=O)[C@H](CCC(=O)O)NC(=O)C(C)(C)NC(=O)[C@@H](N)Cc1ccc(O)cc1)[C@@H](C)O)[C@@H](C)O)C(=O)NC(C)(C)C(=O)N[C@@H](CC(C)C)C(=O)N[C@@H](CC(=O)O)C(=O)N[C@@H](CCCCN)C(=O)N[C@@H](CCC(N)=O)C(=O)N[C@@H](C)C(=O)N[C@@H](CCC(N)=O)C(=O)N[C@@H](C)C(=O)N[C@@H](CCC(=O)O)C(=O)N[C@@H](Cc1ccccc1)C(=O)N[C@H](C(=O)N[C@@H](CCCCN)C(=O)N[C@@H](Cc1c[nH]c2ccccc12)C(=O)N[C@@H](CC(C)C)C(=O)N[C@@H](CC(C)C)C(=O)N[C@@H](CCCCN)C(=O)NCC(=O)NCC(=O)N1CCC[C@H]1C(=O)N[C@@H](CO)C(=O)N[C@@H](CO)C(=O)NCC(=O)N[C@@H](C)C(=O)N1CCC[C@H]1C(=O)N1CCC[C@H]1C(=O)N1CCC[C@H]1C(=O)N[C@@H](CO)C(=O)N[C@@H](CCCCN)C(N)=O)C(C)C [Example 2] (H-Y[Aib]EGT[αMeF]TSDY[Aib]I[Aib]LDKQAQAEFVKWLLKGGPSSGAPPPSK-NH2)
Human GIPR
  pEC50: 11.17
[1]; Britton-Robinson buffer pH 3, 25° C., read-out: Solubility (mg /mL) pH 3
  solubility: > 100 mg/mL
[1]; Britton-Robinson buffer pH 5, 25° C., read-out: Solubility (mg /mL) pH 5
  solubility: > 100 mg/mL
[1]; Britton-Robinson buffer pH 7, 25° C., read-out: Solubility (mg /mL) pH 7
  solubility: > 50 mg/mL
[1]; Britton-Robinson buffer pH 9, 25° C., read-out: Solubility (mg /mL) pH 9
  solubility: > 50 mg/mL
Human glucagon R
  pEC50: < 6.00
Human GLP-1R
  pEC50: 10.80

## CC[C@H](C)[C@H](NC(=O)C(C)(C)NC(=O)[C@H](Cc1ccc(O)cc1)NC(=O)[C@H](CC(=O)O)NC(=O)[C@H](CO)NC(=O)[C@@H](NC(=O)[C@](C)(Cc1ccccc1)NC(=O)[C@@H](NC(=O)CNC(=O)[C@H](CCC(=O)O)NC(=O)C(C)(C)NC(=O)[C@H](Cc1ccc(O)cc1)NC(C)=O)[C@@H](C)O)[C@@H](C)O)C(=O)NC(C)(C)C(=O)N[C@@H](CC(C)C)C(=O)N[C@@H](CC(=O)O)C(=O)N[C@@H](CCCCN)C(=O)N[C@@H](CCC(N)=O)C(=O)N[C@@H](C)C(=O)N[C@@H](CCC(N)=O)C(=O)N[C@@H](C)C(=O)N[C@@H](CCC(=O)O)C(=O)N[C@@H](Cc1ccccc1)C(=O)N[C@H](C(=O)N[C@@H](CCCCN)C(=O)N[C@@H](Cc1c[nH]c2ccccc12)C(=O)N[C@@H](CC(C)C)C(=O)N[C@@H](CC(C)C)C(=O)N[C@@H](CCCCN)C(=O)NCC(=O)NCC(=O)N1CCC[C@H]1C(=O)N[C@@H](CO)C(=O)N[C@@H](CO)C(=O)NCC(=O)N[C@@H](C)C(=O)N1CCC[C@H]1C(=O)N1CCC[C@H]1C(=O)N1CCC[C@H]1C(=O)N[C@@H](CO)C(=O)N[C@@H](CCCCN)C(N)=O)C(C)C [Example 18] (Ac-Y[Aib]EGT[αMeF]TSDY[Aib]I[Aib]LDKQAQAEFVKWLLKGGPSSGAPPPSK-NH2)
Human GIPR; [2]
  pEC50: 10.57
Human glucagon R; [3]
  pEC50: < 6.00
Human GLP-1R; [4]
  pEC50: 9.89

## CC[C@H](C)[C@H](NC(=O)C(C)(C)NC(=O)[C@H](Cc1ccc(O)cc1)NC(=O)[C@H](CC(=O)O)NC(=O)[C@H](CO)NC(=O)[C@@H](NC(=O)[C@](C)(Cc1ccccc1)NC(=O)[C@@H](NC(=O)CNC(=O)[C@H](CCC(=O)O)NC(=O)C(C)(C)NC(=O)[C@H](Cc1ccc(O)cc1)NC(=O)c1ccccc1)[C@@H](C)O)[C@@H](C)O)C(=O)NC(C)(C)C(=O)N[C@@H](CC(C)C)C(=O)N[C@@H](CC(=O)O)C(=O)N[C@@H](CCCCN)C(=O)N[C@@H](CCC(N)=O)C(=O)N[C@@H](C)C(=O)N[C@@H](CCC(N)=O)C(=O)N[C@@H](C)C(=O)N[C@@H](CCC(=O)O)C(=O)N[C@@H](Cc1ccccc1)C(=O)N[C@H](C(=O)N[C@@H](CCCCN)C(=O)N[C@@H](Cc1c[nH]c2ccccc12)C(=O)N[C@@H](CC(C)C)C(=O)N[C@@H](CC(C)C)C(=O)N[C@@H](CCCCN)C(=O)NCC(=O)NCC(=O)N1CCC[C@H]1C(=O)N[C@@H](CO)C(=O)N[C@@H](CO)C(=O)NCC(=O)N[C@@H](C)C(=O)N1CCC[C@H]1C(=O)N1CCC[C@H]1C(=O)N1CCC[C@H]1C(=O)N[C@@H](CO)C(=O)N[C@@H](CCCCN)C(N)=O)C(C)C [Example 19] (Bz-Y[Aib]EGT[αMeF]TSDY[Aib]I[Aib]LDKQAQAEFVKWLLKGGPSSGAPPPSK-NH2)
Human GIPR
  pEC50: 10.62
Human glucagon R
  pEC50: < 6.00
Human GLP-1R
  pEC50: 10.43

## CC[C@H](C)[C@H](NC(=O)C(C)(C)NC(=O)[C@H](Cc1ccc(O)cc1)NC(=O)[C@H](CC(=O)O)NC(=O)[C@H](CO)NC(=O)[C@@H](NC(=O)[C@](C)(Cc1ccccc1)NC(=O)[C@@H](NC(=O)CNC(=O)[C@H](CCC(=O)O)NC(=O)C(C)(C)NC(=O)[C@H](Cc1ccc(O)cc1)NC(=O)c1ccncc1)[C@@H](C)O)[C@@H](C)O)C(=O)NC(C)(C)C(=O)N[C@@H](CC(C)C)C(=O)N[C@@H](CC(=O)O)C(=O)N[C@@H](CCCCN)C(=O)N[C@@H](CCC(N)=O)C(=O)N[C@@H](C)C(=O)N[C@@H](CCC(N)=O)C(=O)N[C@@H](C)C(=O)N[C@@H](CCC(=O)O)C(=O)N[C@@H](Cc1ccccc1)C(=O)N[C@H](C(=O)N[C@@H](CCCCN)C(=O)N[C@@H](Cc1c[nH]c2ccccc12)C(=O)N[C@@H](CC(C)C)C(=O)N[C@@H](CC(C)C)C(=O)N[C@@H](CCCCN)C(=O)NCC(=O)NCC(=O)N1CCC[C@H]1C(=O)N[C@@H](CO)C(=O)N[C@@H](CO)C(=O)NCC(=O)N[C@@H](C)C(=O)N1CCC[C@H]1C(=O)N1CCC[C@H]1C(=O)N1CCC[C@H]1C(=O)N[C@@H](CO)C(=O)N[C@@H](CCCCN)C(N)=O)C(C)C [Example 20] (Isonicotinoyl-Y[Aib]EGT[αMeF]TSDY[Aib]I[Aib]LDKQAQAEFVKWLLKGGPSSGAPPPSK-NH2)
Human GIPR; [2]
  pEC50: 10.59
Human glucagon R; [3]
  pEC50: < 6.00
Human GLP-1R; [4]
  pEC50: 9.89

## CC[C@H](C)[C@H](NC(=O)C(C)(C)NC(=O)[C@H](Cc1ccc(O)cc1)NC(=O)[C@H](CC(=O)O)NC(=O)[C@H](CO)NC(=O)[C@@H](NC(=O)[C@](C)(Cc1ccccc1)NC(=O)[C@@H](NC(=O)CNC(=O)[C@H](CCC(=O)O)NC(=O)C(C)(C)NC(=O)[C@H](Cc1ccc(O)cc1)NC(=O)C1CC1)[C@@H](C)O)[C@@H](C)O)C(=O)NC(C)(C)C(=O)N[C@@H](CC(C)C)C(=O)N[C@@H](CC(=O)O)C(=O)N[C@@H](CCCCN)C(=O)N[C@@H](CCC(N)=O)C(=O)N[C@@H](C)C(=O)N[C@@H](CCC(N)=O)C(=O)N[C@@H](C)C(=O)N[C@@H](CCC(=O)O)C(=O)N[C@@H](Cc1ccccc1)C(=O)N[C@H](C(=O)N[C@@H](CCCCN)C(=O)N[C@@H](Cc1c[nH]c2ccccc12)C(=O)N[C@@H](CC(C)C)C(=O)N[C@@H](CC(C)C)C(=O)N[C@@H](CCCCN)C(=O)NCC(=O)NCC(=O)N1CCC[C@H]1C(=O)N[C@@H](CO)C(=O)N[C@@H](CO)C(=O)NCC(=O)N[C@@H](C)C(=O)N1CCC[C@H]1C(=O)N1CCC[C@H]1C(=O)N1CCC[C@H]1C(=O)N[C@@H](CO)C(=O)N[C@@H](CCCCN)C(N)=O)C(C)C [Example 21] (Cyclopropanecarbonyl-Y[Aib]EGT[αMeF]TSDY[Aib]I[Aib]LDKQAQAEFVKWLLKGGPSSGAPPPSK-NH2)
Human GIPR; [2]
  pEC50: 10.62
Human glucagon R; [3]
  pEC50: < 6.00
Human GLP-1R; [4]
  pEC50: 10.26

## CC[C@H](C)[C@H](NC(=O)C(C)(C)NC(=O)[C@H](Cc1ccc(O)cc1)NC(=O)[C@H](CC(=O)O)NC(=O)[C@H](CO)NC(=O)[C@@H](NC(=O)[C@](C)(Cc1ccccc1)NC(=O)[C@@H](NC(=O)CNC(=O)[C@H](CCC(=O)O)NC(=O)C(C)(C)NC(=O)[C@H](Cc1ccc(O)cc1)NC(=N)N)[C@@H](C)O)[C@@H](C)O)C(=O)NC(C)(C)C(=O)N[C@@H](CC(C)C)C(=O)N[C@@H](CC(=O)O)C(=O)N[C@@H](CCCCN)C(=O)N[C@@H](CCC(N)=O)C(=O)N[C@@H](C)C(=O)N[C@@H](CCC(N)=O)C(=O)N[C@@H](C)C(=O)N[C@@H](CCC(=O)O)C(=O)N[C@@H](Cc1ccccc1)C(=O)N[C@H](C(=O)N[C@@H](CCCCN)C(=O)N[C@@H](Cc1c[nH]c2ccccc12)C(=O)N[C@@H](CC(C)C)C(=O)N[C@@H](CC(C)C)C(=O)N[C@@H](CCCCN)C(=O)NCC(=O)NCC(=O)N1CCC[C@H]1C(=O)N[C@@H](CO)C(=O)N[C@@H](CO)C(=O)NCC(=O)N[C@@H](C)C(=O)N1CCC[C@H]1C(=O)N1CCC[C@H]1C(=O)N1CCC[C@H]1C(=O)N[C@@H](CO)C(=O)N[C@@H](CCCCN)C(N)=O)C(C)C [Example 22] ({Tyr(Nα-amidino)}-[Aib]EGT[αMeF]TSDY[Aib]I[Aib]LDKQAQAEFVKWLLKGGPSSGAPPPSK-NH2)
Human GIPR
  pEC50: 10.72
Human glucagon R
  pEC50: < 6.00
Human GLP-1R
  pEC50: 10.46
